US20260132123A1, “ABAD INHIBITOR COMPOUNDS” (UNIVERSITY COURT OF THE UNIVERSITY OF ST ANDREWS, priority 2021, published 2026)

Target: T1, 17β-HSD10 (Homo sapiens, UniProt Q99714)
T1 construct: Histev (histidine tag with TEV site) (N, cleaved yes); made in house; host or cells: E. coli BL21-CodonPlus
T1 sequence (Q99714 1-261): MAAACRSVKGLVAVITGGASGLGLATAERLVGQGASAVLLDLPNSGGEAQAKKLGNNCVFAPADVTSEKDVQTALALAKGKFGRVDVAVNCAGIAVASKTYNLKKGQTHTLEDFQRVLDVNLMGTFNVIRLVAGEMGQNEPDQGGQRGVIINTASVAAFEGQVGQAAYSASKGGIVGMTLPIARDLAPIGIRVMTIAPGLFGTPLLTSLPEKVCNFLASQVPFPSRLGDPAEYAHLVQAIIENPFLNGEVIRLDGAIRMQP
Experiment: 17β-HSD10 (ABAD) enzyme inhibition assay, NADH oxidation read at 340 nm (primary screen and dose response)
Type: biochemical
Details: for EC50 / Max. Effect (%) / Hill Slope / Max. Fit / Min. Fit: recombinant 17βHSD10 enzyme assay; for Hill Slope / Max. Fit / Min. Fit: curve fit; for ABAD plC50: primary screening, resynthesized HTS hit compounds
Outline: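 Screening used a 35 min room-temperature endpoint A340 read after compound (10 μM) and enzyme (2.5 nM, E. coli-expressed, His-tag removed) preincubated 15 min, then 100 μM NADH plus acetoacetyl-CoA added. Dose-response runs tracked absorbance kinetically 45 min; buffer pH 7.4 Tris with BSA, DTT.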

| Structure (SMILES) | EC50 [nM] | Max. Effect (%) | Hill Slope | Max. Fit | Min. Fit | 17β-HSD10 / ABAD activity in words (SAR discussion) | ABAD plC50 |
| --- | --- | --- | --- | --- | --- | --- | --- |
| COc1cccc(-c2ccccc2[C@H]2CCCN2C(=O)c2ccc(C)s2)c1 [ESC1002426] | > 20000 | 22 | – | – | – | – | – |
| CC(C)CN(C(=O)c1ccncn1)c1cccc(N(C)Cc2c[nH]cn2)c1 [ESC1002703] | 8710 | 52 | 1.3 | 70 | −5 | – | – |
| CCCCN(C(=O)c1ccccc1F)c1cccc(N(C)Cc2c[nH]cn2)c1 [ESC1002508, N-butyl-2-fluoro-N-[3-[1H-imidazol-4-ylmethyl(methyl)amino]phenyl]benzamide] | 1550 | 92 | 1.2 | 96 | 0 | – | – |
| CCN(C(=O)c1ccccn1)c1cccc(N(C)Cc2cnc[nH]2)c1 [S2−T3, N-ethyl-N-[3-[1H-imidazol-5-ylmethyl(methyl)amino]phenyl]pyridine-2-carboxamide] | > 20000 | 20.3 | – | – | – | – | – |
| COc1cccc(-c2ccccc2[C@@H]2CCCN2C(=O)C(C)C)c1 (racemic) [ESC1002603] | > 20000 | 21 | – | – | – | – | – |
| Cc1ccsc1C(=O)N1CCC[C@@H]1c1ccccc1-c1cnn(CCO)c1 [ESC1002463] | 3470 | 87 | 0.79 | 110 | −6 | – | – |
| CC(C)CN(C(=O)c1ccccc1F)c1cccc(N(CCO)Cc2c[nH]cn2)c1 [ESC1002723] | 5130 | 81 | 1.1 | 94 | 0 | – | – |
| Cc1ccc(C(=O)N(CC2CC2)c2cccc(N(C)Cc3c[nH]cn3)c2)cc1 [ESC1002399, N-(cyclopropylmethyl)-N-[3-[1H-imidazol-4-ylmethyl(methyl)amino]phenyl]-4-methyl-benzamide] | 1000 | 95 | 1.1 | 99 | 2 | – | – |
| CC(C)CN(C(=O)c1ccccc1F)c1cccc(N(C)Cc2nc[nH]n2)c1 [ESC1002770] | 2690 | 86 | 1.2 | 91 | −4 | – | – |
| COc1cccc(-c2ccccc2[C@@H]2CCCN2C(=O)C(C)(C)C)c1 (racemic) [ESC1002604] | > 20000 | 20 | – | – | – | – | – |
| COc1cccc(-c2ccccc2[C@@H]2CCCN2C(=O)c2nccn2C)c1 (racemic) [ESC1002661] | > 20000 | 7 | – | – | – | – | – |
| CC(C)CN(C(=O)c1ccccc1F)c1cccc(NCc2nc[nH]n2)c1 [ESC1002763] | > 20000 | 8 | – | – | – | – | – |
| CN(Cc1cncn1C(=O)OC(C)(C)C)c1cccc(NC(=O)c2ccccc2F)c1 [ESC1002055] | > 20000 | 1 | – | – | – | – | – |
| CN(Cc1cnc[nH]1)c1ccc2c(c1)N(C(=O)c1ccccc1F)CCC2 [ESC1002083, (2-fluorophenyl)-[7-[1H-imidazol-5-ylmethyl(methyl)amino]-3,4-dihydro-2H-quinolin-1-yl]methanone] | > 20000 | 2 | – | – | – | – | – |
| Cc1ccc(C(=O)N(c2cccc(N(C)Cc3cnc[nH]3)c2)C(C)C)cc1 [ESC1002080, N-[3-[1H-imidazol-5-ylmethyl(methyl)amino]phenyl]-N-isopropyl-4-methyl-benzamide] | 1000 | 96 | 0.9 | 102 | 0 | – | – |
| CC(C)CN(C(=O)c1ccncc1)c1cccc(N(C)Cc2cnc[nH]2)c1 [ESC1002034, N-[3-[1H-imidazol-5-ylmethyl(methyl)amino]phenyl]-N-isobutyl-pyridine-4-carboxamide] | 1580 | 92 | 0.8 | 106 | −3 | – | 5.8 |
| COc1cccc(-c2ccccc2[C@H]2CCCN2C(C)c2ccccc2)c1 (stereo partly drawn) [ESC1002505] | > 20000 | 3 | – | – | – | – | – |
| Cc1cc(CN(C(=O)c2ccccc2F)c2cccc(N(C)Cc3c[nH]cn3)c2)no1 [ESC1002516, 2-fluoro-N-[3-[1H-imidazol-4-ylmethyl(methyl)amino]phenyl]-N-[(5-methylisoxazol-3-yl)methyl]benzamide] | > 20000 | 46 | – | – | – | – | – |
| CC(C)CN(C(=O)c1ccccc1F)c1cccc(NCC(N)=O)c1 [ESC1002571] | > 20000 | 13 | – | – | – | – | – |
| O=C(c1cccnc1)N1CCC[C@H]1c1ccccc1 [S1−T12, 3-{[(2S)-2-phenylpyrrolidin-1-yl]carbonyl}pyridine] | > 20000 | 9.1 | – | – | – | – | – |
| CC(C)CN(C(=O)c1ccccc1F)c1cccc(N(C)CC#N)c1 [ESC1002762] | > 20000 | 39 | – | – | – | – | – |
| CC(C)CN(C(=O)c1ccc(Cl)cc1F)c1cccc(N(C)Cc2cnc[nH]2)c1 [ESC1002042, 4-chloro-2-fluoro-N-[3-[1H-imidazol-5-ylmethyl(methyl)amino]phenyl]-N-isobutyl-benzamide] | 316 | 98 | 0.8 | 101 | −6 | – | 6.5 |
| CC(C)CN(C(=O)c1ccc(C(F)(F)F)cc1F)c1cccc(N(C)Cc2c[nH]cn2)c1 [ESC1002455, 2-fluoro-N-[3-[1H-imidazol-4-ylmethyl(methyl)amino]phenyl]-N-isobutyl-4-(trifluoromethyl)benzamide] | 1260 | 92 | 0.99 | 97 | −7 | – | – |
| CC(C)CN(C(=O)c1ccccc1F)c1cccc(N(C)Cc2c[nH]cn2)n1 [ESC1002795] | 5620 | 77 | 1.1 | 93 | 0 | – | – |

The next lines start with results.

| EC50 [nM] | Max. Effect (%) | Hill Slope | Max. Fit | Min. Fit | 17β-HSD10 / ABAD activity in words (SAR discussion) | Structure (SMILES) | ABAD plC50 |
| --- | --- | --- | --- | --- | --- | --- | --- |
| 1070 | 98 | 1 | 103 | −10 | – | Cn1cc(-c2ccccc2[C@@H]2CCCN2C(=O)c2sccc2Cl)cn1 (racemic) [ESC1002704] | – |
| > 20000 | 28 | – | – | – | – | COc1cccc(-c2ccccc2[C@H]2CCCN2C(=O)c2sccc2C)c1 (single isomer, unassigned) [ESC1002420] | – |
| 603 | 92 | 1.2 | 92 | −1 | – | COc1cc(OC)cc(-c2ccccc2[C@@H]2CCCN2C(=O)c2sccc2Cl)c1 (racemic) [ESC1002662] | – |
| 10700 | 70 | 1.1 | 100 | −1 | – | O=C(c1sccc1Cl)N1CCC[C@H]1c1ccccc1-c1cc(O)ccc1F (single isomer, unassigned) [ESC1002843] | – |
| 288 | 99 | 1.2 | 96 | 0 | – | O=C(c1sccc1Cl)N1CCC[C@H]1c1ccccc1-c1ccc2[nH]ncc2c1 (racemic) [ESC1002701] | – |
| > 20000 | 5 | – | – | – | – | COc1cccc(-c2ccccc2[C@@H]2CCCN2C(=O)c2snc(Cl)c2Cl)c1 (racemic) [ESC1002627] | – |
| 933 | 96 | 1.3 | 96 | 2 | – | Cc1ccsc1C(=O)N1CCC[C@@H]1c1ccccc1-c1cnn(C)c1 [ESC1002424] | – |
| 6030 | 65 | 1.2 | 80 | −1 | significantly less active | COc1cccc(-c2ccccc2[C@H]2CCCN2C(=O)c2scnc2C)c1 [ESC1002430] | – |
| 155 | 96 | 0.98 | 96 | −2 | – | Cc1ccsc1C(=O)N1CCC[C@H]1c1ccccc1-c1ccccc1Cl (single isomer, unassigned) [ESC1002767] | – |
| > 20000 | 10 | – | – | – | – | O=C(c1sccc1Cl)N1CCC[C@H]1c1ccccc1-c1cc(O)cc(F)c1 (single isomer, unassigned) [ESC1002800] | – |
| 457 | 95 | 1.6 | 91 | −1 | – | COc1cccc(-c2ccccc2[C@@H]2CCCN2C(=O)c2[nH]ncc2Cl)c1 (racemic) [ESC1002626] | – |
| 562 | 93 | 1.6 | 90 | 1 | – | Cc1ccsc1C(=O)N1CCC[C@@H]1c1ccccc1-c1ccc(C2CC2)cc1 [ESC1002422] | – |
| 49 | 100 | 1.2 | 96 | 0 | – | O=C(c1sccc1Cl)N1CCC[C@H]1c1ccccc1-c1ccc(F)c(O)c1 (racemic) [ESC1002775] | – |
| 1510 | 87 | 1.2 | 90 | −2 | – | Cc1ccsc1C(=O)N1CCC[C@@H]1c1ccccc1-c1c[nH]nc1C(F)(F)F [ESC1002465] | – |
| 170 | 98 | 1.1 | 97 | −4 | – | O=C(c1sccc1Cl)N1CCC[C@H]1c1ccccc1-c1cccc(O)c1F (single isomer, unassigned) [ESC1002840] | – |
